Experimental data reported in US20200392158A1, “INHIBITORS OF LEUCINE RICH REPEAT KINASE 2” (GLAXOSMITHKLINE INTELLECTUAL PROPERTY DEVELOPMENT LIMITED, priority 2017, published 2020).
Counter-ions that a name gives are not always drawn.

Biological target: T1, LRRK2 kinase in SH-SY5Y cells over-expressing recombinant full length LRRK2 (Homo sapiens, UniProt Q5S007)
T1 construct: A BacMam virus expressing full length recombinant LRRK2 was purchased from Invitrogen; host or cells: SH-SY5Y human neuroblastoma cells transduced with BacMam LRRK2 virus
T1 sequence (Q5S007 whole entry): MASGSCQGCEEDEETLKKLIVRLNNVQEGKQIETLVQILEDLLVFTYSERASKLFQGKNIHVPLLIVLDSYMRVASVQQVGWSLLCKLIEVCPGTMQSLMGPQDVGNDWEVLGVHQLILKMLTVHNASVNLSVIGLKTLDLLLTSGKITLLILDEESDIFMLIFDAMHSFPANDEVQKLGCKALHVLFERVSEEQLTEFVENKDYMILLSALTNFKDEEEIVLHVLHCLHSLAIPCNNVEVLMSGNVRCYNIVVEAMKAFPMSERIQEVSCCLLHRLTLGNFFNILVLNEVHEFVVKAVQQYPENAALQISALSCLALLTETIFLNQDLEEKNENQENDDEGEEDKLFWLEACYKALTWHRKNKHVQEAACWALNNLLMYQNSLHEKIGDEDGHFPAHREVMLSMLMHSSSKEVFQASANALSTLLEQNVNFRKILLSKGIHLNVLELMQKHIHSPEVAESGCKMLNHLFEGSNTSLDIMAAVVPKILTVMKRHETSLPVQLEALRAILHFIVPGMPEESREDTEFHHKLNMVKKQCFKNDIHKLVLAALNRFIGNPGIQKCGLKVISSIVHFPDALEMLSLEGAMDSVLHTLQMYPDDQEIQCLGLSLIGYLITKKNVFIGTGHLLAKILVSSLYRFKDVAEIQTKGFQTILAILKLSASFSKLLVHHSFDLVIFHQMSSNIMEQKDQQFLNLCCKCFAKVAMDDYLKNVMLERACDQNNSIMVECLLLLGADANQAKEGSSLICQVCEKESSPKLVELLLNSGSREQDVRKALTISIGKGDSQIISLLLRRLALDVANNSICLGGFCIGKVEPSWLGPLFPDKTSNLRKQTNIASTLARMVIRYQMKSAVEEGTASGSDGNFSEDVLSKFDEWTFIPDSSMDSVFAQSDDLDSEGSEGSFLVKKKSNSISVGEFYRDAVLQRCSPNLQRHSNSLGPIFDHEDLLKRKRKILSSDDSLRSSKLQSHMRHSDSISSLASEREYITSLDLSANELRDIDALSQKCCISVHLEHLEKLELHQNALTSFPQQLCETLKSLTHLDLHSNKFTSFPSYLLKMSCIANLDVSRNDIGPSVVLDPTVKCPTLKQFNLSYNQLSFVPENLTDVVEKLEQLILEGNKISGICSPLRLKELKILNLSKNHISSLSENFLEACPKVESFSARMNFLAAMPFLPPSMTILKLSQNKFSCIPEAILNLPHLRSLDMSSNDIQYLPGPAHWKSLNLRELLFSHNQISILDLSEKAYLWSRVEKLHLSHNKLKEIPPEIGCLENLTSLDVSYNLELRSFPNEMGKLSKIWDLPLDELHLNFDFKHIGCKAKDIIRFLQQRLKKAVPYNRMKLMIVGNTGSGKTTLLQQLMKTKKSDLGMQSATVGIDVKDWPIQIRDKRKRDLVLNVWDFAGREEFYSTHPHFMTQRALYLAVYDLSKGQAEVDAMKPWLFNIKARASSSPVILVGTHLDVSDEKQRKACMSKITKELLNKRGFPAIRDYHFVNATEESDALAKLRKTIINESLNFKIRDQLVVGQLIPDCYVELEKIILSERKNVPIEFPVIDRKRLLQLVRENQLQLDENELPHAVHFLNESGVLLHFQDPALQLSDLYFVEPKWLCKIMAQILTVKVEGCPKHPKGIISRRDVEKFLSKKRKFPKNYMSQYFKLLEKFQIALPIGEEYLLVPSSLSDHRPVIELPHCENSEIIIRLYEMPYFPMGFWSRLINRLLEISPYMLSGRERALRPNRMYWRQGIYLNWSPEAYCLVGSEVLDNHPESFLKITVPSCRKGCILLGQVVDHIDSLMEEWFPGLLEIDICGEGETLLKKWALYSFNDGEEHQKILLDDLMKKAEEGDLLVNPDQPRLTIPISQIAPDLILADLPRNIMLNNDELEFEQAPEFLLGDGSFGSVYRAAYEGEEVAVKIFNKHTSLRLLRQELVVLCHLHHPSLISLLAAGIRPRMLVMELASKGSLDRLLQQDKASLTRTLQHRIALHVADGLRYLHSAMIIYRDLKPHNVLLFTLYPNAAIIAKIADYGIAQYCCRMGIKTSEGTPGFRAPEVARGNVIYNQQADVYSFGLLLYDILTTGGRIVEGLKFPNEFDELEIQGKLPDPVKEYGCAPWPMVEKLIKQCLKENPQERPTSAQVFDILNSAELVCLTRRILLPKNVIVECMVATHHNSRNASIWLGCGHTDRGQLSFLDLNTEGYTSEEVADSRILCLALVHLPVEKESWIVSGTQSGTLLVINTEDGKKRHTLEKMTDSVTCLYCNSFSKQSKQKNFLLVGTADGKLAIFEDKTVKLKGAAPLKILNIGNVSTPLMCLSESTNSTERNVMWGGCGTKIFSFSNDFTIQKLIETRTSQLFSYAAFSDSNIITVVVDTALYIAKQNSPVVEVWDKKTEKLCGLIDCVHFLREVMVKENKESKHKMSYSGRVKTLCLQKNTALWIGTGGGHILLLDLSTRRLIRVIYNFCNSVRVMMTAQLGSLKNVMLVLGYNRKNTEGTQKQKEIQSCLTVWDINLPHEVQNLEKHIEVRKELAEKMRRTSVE
Assay: Recombinant cellular LRRK2 AlphaScreen assay (LRRK2 Ser935 phosphorylation)
Assay type: cell-based
Conditions: 60 min
How it was run: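 Read-out is AlphaScreen of LRRK2 pSer935 over total LRRK2 in lysates of SH-SY5Y cells over-expressing full-length LRRK2 via BacMam (24 h transduction). Cells were exposed 60 min at 37 °C to an 11-point 1-in-4 dilution series starting at 10 uM; sigmoidal fit.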

IC50, ≤ 100 nM:
Cc1c2c(nn1C1CCOCC1)OCC(C)CNc1nc(ncc1Cl)N2 (single isomer, unassigned) [E136, 14-chloro-4,10-dimethyl-5-(oxan-4-yl)-8-oxa-2,5,6,12,16,17-hexaazatricyclo[11.3.1.0^3,7]heptadeca-1(16),3,6,13(17),14-pentaene]
Cc1c2c(nn1C1COC1)OCC[C@@H](C)Nc1nc(ncc1Cl)N2 [E52, (11R)-14-chloro-4,11-dimethyl-5-(oxetan-3-yl)-8-oxa-2,5,6,12,16,17-hexaazatricyclo [11.3.1.0^3,7]heptadeca-1(16),3,6,13(17),14-pentaene]
N#Cc1cnc2nc1NCCCOc1nn(C3CCOCC3(F)F)c(Cl)c1N2 (stereo not shown) [E438, 4-Chloro-5-(3,3-difluorooxan-4-yl)-8-oxa-2,5,6,12,16,17-hexaazatricyclo[11.3.1.0^3,7]heptadeca-1(16),3,6,13(17),14-pentaene-14-carbonitrile]
Cc1c2c(nn1C)OCCCNc1nc(ncc1Cl)N2 [E108, 14-Chloro-4,5-dimethyl-8-oxa-2,5,6,12,16,17-hexaazatricyclo [11.3.1.0^3,7]heptadeca-1(16),3,6,13(17),14-pentaene]
Cc1c2c(nn1C1CCOCC1C)OCCCNc1nc(ncc1Cl)N2 (stereo not shown) [E139, 14-Chloro-4-methyl-5-(3-methyloxan-4-yl)-8-oxa-2,5,6,12,16,17-hexaazatricyclo[11.3.1.0^3,7]heptadeca-1(16),3,6,13(17),14-pentaene]
Cc1c2c(nn1C(C)(C)CO)OCCCNc1nc(ncc1Cl)N2 [E451, 2-{14-Chloro-4-methyl-8-oxa-2,5,6,12,16,17-hexaazatricyclo[11. 3.1.0^3,7]heptadecal 1(16),3,6,13(17),14-pentaen-5-yl}-2-methylpropan-1-ol]
Cc1c2c(nn1C1CCOCC1F)OCC(F)CNc1nc(ncc1Cl)N2 (single isomer, unassigned) [E334, 14-Chloro-10-fluoro-5-(3-fluorooxan-4-yl)-4-methyl-8-oxa-2,5,6,12,16,17-hexaazatricyclo[11.3.1.0^3,7] heptadeca-1(16),3,6,13(17),14-pentaene]
Cc1c2c(nn1C1CCC(N3CCC(F)C3)CC1)OCCC(C)Nc1nc(ncc1Cl)N2 (single isomer, unassigned) [E158, 14-Chloro-5-[4-(3-fluoropyrrolidin-1-yl)cyclohexyl]-4,11-dimethyl-8-oxa-2,5,6,12,16,17-hexaazatricyclo [11.3.1.0^3,7]heptadeca-1(16),3,6,13(17),14-pentaene]
COC1CCC(n2nc3c(c2C)Nc2ncc(Cl)c(n2)NCCCO3)CC1 (single isomer, unassigned) [E237, 14-Chloro-5-(4-methoxycyclohexyl)-4-methyl-8-oxa-2,5,6,12,16,17-hexaazatricyclo[11.3.1.0^3,7]heptadeca-1(16), 3,6,13(17),14-pentaene]
Cc1c2c(nn1C1CCN(C3COC3)CC1F)OCCC(C)Nc1nc(ncc1Cl)N2 (single isomer, unassigned) [E96, 14-chloro-5-[3-fluoro-1-(oxetan-3-yl)piperidin-4-yl]-4,11-dimethyl-8-oxa-2,5,6,12,16,17-hexaazatricyclo[11.3.1.0^3,7]heptadeca-1(16),3,6,13(17),14-pentaene]
Cc1c2c(nn1C1CCC(F)(F)CC1)OCC[C@@H](C)Nc1nc(ncc1Cl)N2 [E373, (11R)-14-Chloro-5-(4,4-difluorocyclohexyl)-4,11-dimethyl-8-oxa-2,5,6,12,16,17-hexaazatricyclo[11.3.1.0^3,7]heptadeca-1(16),3,6,13 (17),14-pentaene]
Cc1c2c(nn1CC1(C)COC1)OCCCNc1nc(ncc1Cl)N2 [E143, 14-Chloro-4-methyl-5-[(3-methyloxetan-3-yl)methyl]-8-oxa-2,5,6,12,16,17-hexaazatricyclo[11.3.1.0^3,7]heptadeca-1(16),3,6, 13(17), 14-pentaene]
COC1CNc2nc(ncc2Cl)Nc2c(nn(C3CCOC(C)C3)c2C)OC1 (single isomer, unassigned) [E206, 14-Chloro-10-methoxy-4-methyl-5-(2-methyloxan-4-yl)-8-oxa-2,5,6,12,16,17-hexaazatricyclo [11.3.1.0^3,7] heptadeca-1(16),3,6,13(17),14-pentaene]
Cc1c2c(nn1C1CCCOC1)OCCCNc1nc(ncc1Cl)N2 (stereo not shown) [E8, 14-Chloro-4-methyl-5-(oxan-3-yl)-8-oxa-2,5,6,12,16,17-hexaazatricyclo[11.3.1.0^3,7]heptadeca-1(16),3,6,13(17),14-pentaene]
Cc1c2c(nn1C1CCOCC1)OCC[C@@H](C)N(C)c1nc(ncc1Cl)N2 [E359, (11R)-14-Chloro-4,11,12-trimethyl-5-(oxan-4-yl)-8-oxa-2,5,6,12,16,17-hexaazatricyclo[11.3.1.0^3,7]heptadeca-1(16),3,6,13(17),14-pentaene]
Cc1c2c(nn1C1(C#N)CCOCC1)OCCCNc1nc(ncc1Cl)N2 [E450, 4-{14-chloro-4-methyl-8-oxa-2,5,6,12,16,17-hexaazatricyclo[11.3.1.0^3,7]heptadeca-1(17),3,6,13,15-pentaen-5-yl}oxane-4-carbonitrile]
Cc1c2c(nn1C1CCC(OC(F)F)CC1)OCC[C@@H](C)Nc1nc(ncc1Cl)N2 (stereo partly drawn) [E374, (11R)-14-Chloro-5-[4-(difluoromethoxy)cyclohexyl]-4,11-di methyl-8-oxa-2,5,6,12,16,17-hexaazatricyclo[11.3.1.0^3,7]hepta deca-1(16),3,6,13(17),14-pentaene]
Cc1c2c(nn1C1CCOC(CO)C1)OCC[C@@H](C)Nc1nc(ncc1Cl)N2 (stereo partly drawn) [E331, {4-[(11R)-14-Chloro-4,11-dimethyl-8-oxa-2,5,6,12,16,17-hexaazatricyclo[11.3.1.0^3,7]heptadeca-1(16),3,6,13(17),14-pentaen-5-yl]oxan-2-yl}methanol]
Cc1c2c(nn1C1CCCOC1)OCCCNc1nc(ncc1C(F)(F)F)N2 (single isomer, unassigned) [E132, 4-methyl-5-(oxan-3-yl)-14-(trifluoromethyl)-8-oxa-2,5,6,12,16,17-hexaazatricyclo[11.3.1.0^3,7]heptadeca-1(16),3,6,13(17),14-pentaene]
COC1CNc2nc(ncc2C(F)(F)F)Nc2c(nn(C3CCOCC3)c2C)OC1 (stereo not shown) [E119, 10-Methoxy-4-methyl-5-(oxan-4-yl)-14-(trifluoromethyl)-8-oxa-2,5,6,12,16,17-hexaazatricyclo[11.3.1.0^3,7]heptadeca-1(16),3,6, 13(17),14-pentaene]
C[C@@H]1CCOc2nn(C3CN(C4COCCC4(F)F)C3)c(Cl)c2Nc2ncc(Cl)c(n2)N1 (stereo partly drawn) [E440, (11R)-4,14-Dichloro-5-[1-(4,4-difluorooxan-3-yl)azetidin-3-yl]-11-methyl-8-oxa-2,5,6,12,16,17-hexaazatricyclo[11.3.1.0^3,7]heptadeca-1(16),3,6,13(17),14-pentaene, TFA salt]
Cc1c2c(nn1C1CCOCC1C)OCCCNc1nc(ncc1Cl)N2 (single isomer, unassigned) [E412]
Cc1c2c(nn1C1CCOCC1F)OCCC(C)Nc1nc(ncc1Cl)N2 (single isomer, unassigned) [E24, 14-chloro-5-(3-fluorooxan-4-yl)-4,11-dimethyl-8-oxa-2,5,6,12,16,17-hexaazatricyclo [11.3.1.0^3,7]heptadeca-1(17),3,6,13,15-pentaene]
Clc1cnc2nc1NCCCOc1nn(C3CCOC3)c(Cl)c1N2 (stereo not shown) [E144, 4,14-Dichloro-5-(oxolan-3-yl)-8-oxa-2,5,6,12,16,17-hexaaza tricyclo[11.3.1.0^3,7]heptadeca-1(16),3,6,13(17),14-pentaene]
C[C@@H]1CCOc2nn(C3CN(C4COC4)CCC3(F)F)c(Cl)c2Nc2ncc(Cl)c(n2)N1 (single isomer, unassigned) [E442]
Cc1c2c(nn1C1CCOCC1)OCC(F)CNc1nc(ncc1Cl)N2 (single isomer, unassigned) [E17, 14-Chloro-10-fluoro-4-methyl-5-(oxan-4-yl)-8-oxa-2,5,6,12,16,17-hexaazatricyclo [11.3.1.0^3,7]heptadeca-1(16),3,6,13(17),14-pentaene]
Cc1c2c(nn1C1CCC(N3CCOCC3)CC1)OCCCNc1nc(ncc1Cl)N2 (single isomer, unassigned) [E380, 14-Chloro-4-methyl-5-[4-(morpholin-4-yl)cyclohexyl]-8-oxa-2,5,6,12,16,17-hexaazatricyclo [11.3.1.0^3,7]heptadeca-1(16),3,6,13(17),14-pentaene]
Cc1[nH]nc2c1Nc1ncc(Cl)c(n1)NCC(C)CO2 (stereo not shown) [E431, 14-Chloro-4,10-dimethyl-8-oxa-2,5,6,12,16,17-hexaazatricyclo[11.3.1.0^3,7]heptadeca-1(16),3,6,13(17),14-pentaene]
Cc1c2c(nn1C1COCCC1F)OCC[C@@H](C)Nc1nc(ncc1Cl)N2 (single isomer, unassigned) [E325]

Biological target: T2, full length G2019 human LRRK2 (Homo sapiens, UniProt Q5S007, R50H)
T2 construct: made in house; host or cells: HEK293 6E cells transduced with BacMam virus (virus generated in Sf9 cells)
T2 sequence (Q5S007 with tags, fused parts or gaps R50H): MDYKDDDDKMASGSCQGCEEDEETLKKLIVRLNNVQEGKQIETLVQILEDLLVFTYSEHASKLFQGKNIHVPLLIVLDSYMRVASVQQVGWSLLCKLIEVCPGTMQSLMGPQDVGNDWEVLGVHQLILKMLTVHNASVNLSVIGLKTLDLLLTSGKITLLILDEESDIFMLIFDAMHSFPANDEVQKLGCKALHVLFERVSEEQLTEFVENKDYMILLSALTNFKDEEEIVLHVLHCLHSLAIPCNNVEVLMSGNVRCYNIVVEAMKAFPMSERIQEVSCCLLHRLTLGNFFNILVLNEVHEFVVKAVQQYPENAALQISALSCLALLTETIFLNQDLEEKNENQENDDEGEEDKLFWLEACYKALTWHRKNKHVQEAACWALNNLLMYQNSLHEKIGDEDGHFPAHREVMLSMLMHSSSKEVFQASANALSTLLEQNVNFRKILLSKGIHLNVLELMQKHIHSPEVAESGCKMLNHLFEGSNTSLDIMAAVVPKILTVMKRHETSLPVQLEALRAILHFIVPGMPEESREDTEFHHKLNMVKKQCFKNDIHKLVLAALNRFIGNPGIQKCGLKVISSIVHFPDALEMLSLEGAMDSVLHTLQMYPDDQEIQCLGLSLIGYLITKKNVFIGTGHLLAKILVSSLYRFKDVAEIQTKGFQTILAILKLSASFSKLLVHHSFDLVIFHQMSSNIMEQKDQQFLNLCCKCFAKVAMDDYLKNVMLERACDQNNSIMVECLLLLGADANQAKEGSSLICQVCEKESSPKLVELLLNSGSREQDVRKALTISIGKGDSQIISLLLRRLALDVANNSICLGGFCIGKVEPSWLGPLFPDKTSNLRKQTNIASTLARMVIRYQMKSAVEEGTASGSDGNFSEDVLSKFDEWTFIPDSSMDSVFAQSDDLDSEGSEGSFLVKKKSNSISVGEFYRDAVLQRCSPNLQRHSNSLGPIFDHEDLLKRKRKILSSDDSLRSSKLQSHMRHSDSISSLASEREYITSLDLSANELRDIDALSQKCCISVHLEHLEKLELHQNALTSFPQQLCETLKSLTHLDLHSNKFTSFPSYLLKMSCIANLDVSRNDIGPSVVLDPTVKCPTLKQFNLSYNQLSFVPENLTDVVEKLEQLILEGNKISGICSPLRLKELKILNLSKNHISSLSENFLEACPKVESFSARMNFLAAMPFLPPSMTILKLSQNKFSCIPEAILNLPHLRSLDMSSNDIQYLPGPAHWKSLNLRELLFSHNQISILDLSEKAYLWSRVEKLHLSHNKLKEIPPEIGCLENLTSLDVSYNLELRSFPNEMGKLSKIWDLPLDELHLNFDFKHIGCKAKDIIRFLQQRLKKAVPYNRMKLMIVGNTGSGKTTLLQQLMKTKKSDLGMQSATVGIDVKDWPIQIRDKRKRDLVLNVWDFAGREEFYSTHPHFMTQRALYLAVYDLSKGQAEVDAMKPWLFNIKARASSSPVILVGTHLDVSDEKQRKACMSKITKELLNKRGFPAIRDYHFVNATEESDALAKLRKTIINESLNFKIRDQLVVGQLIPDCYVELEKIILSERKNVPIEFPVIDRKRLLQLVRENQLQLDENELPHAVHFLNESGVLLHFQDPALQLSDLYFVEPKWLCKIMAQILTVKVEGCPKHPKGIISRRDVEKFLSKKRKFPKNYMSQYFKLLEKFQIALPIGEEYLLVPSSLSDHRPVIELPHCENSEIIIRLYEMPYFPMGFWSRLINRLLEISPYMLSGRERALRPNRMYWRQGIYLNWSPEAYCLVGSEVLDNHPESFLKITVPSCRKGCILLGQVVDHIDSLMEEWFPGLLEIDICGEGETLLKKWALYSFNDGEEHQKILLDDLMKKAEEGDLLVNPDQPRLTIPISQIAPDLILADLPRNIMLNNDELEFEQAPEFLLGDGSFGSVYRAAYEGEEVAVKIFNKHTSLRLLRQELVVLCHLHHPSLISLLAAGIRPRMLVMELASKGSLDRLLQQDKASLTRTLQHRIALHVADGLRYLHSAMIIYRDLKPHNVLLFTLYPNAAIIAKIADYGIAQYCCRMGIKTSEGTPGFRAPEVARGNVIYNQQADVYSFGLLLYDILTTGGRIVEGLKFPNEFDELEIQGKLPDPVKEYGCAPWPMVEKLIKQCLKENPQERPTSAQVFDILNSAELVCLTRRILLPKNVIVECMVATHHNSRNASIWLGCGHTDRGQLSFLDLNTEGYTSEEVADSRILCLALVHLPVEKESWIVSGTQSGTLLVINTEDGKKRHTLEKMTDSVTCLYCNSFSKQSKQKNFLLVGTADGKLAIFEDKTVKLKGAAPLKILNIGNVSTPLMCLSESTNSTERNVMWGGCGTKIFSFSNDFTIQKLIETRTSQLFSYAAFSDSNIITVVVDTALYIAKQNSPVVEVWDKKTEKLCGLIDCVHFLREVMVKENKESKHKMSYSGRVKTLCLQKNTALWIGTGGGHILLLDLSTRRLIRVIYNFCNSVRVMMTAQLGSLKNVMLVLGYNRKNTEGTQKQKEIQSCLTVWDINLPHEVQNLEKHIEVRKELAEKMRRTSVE
Assay: Full length G2019 human LRRK2 inhibition mass spectrometry assay
Assay type: biochemical
Conditions: LRRKtide to phospho-LRRKtide conversion, RapidFire MS, 2 mM ATP
How it was run: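 Inhibition taken as reduced LRRKtide phosphorylation, quantified by RapidFire-coupled triple-quadrupole MS as product/(product+substrate) peak area. Reaction: 2 mM ATP, 25 μM peptide, ~25 nM full-length G2019 Flag-LRRK2, Hepes pH 7.2 buffer, room temperature for 1 h. 11-point 1-in-4 dilutions from 100 μM; logistic fit gives IC50, reported as pIC50.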

IC50, ≤ 100 nM:
Cc1c2c(nn1C1CCOCC1)OCC(C)CNc1nc(ncc1Cl)N2 (single isomer, unassigned) [E136, 14-chloro-4,10-dimethyl-5-(oxan-4-yl)-8-oxa-2,5,6,12,16,17-hexaazatricyclo[11.3.1.0^3,7]heptadeca-1(16),3,6,13(17),14-pentaene]
Cc1c2c(nn1C1COC1)OCC[C@@H](C)Nc1nc(ncc1Cl)N2 [E52, (11R)-14-chloro-4,11-dimethyl-5-(oxetan-3-yl)-8-oxa-2,5,6,12,16,17-hexaazatricyclo [11.3.1.0^3,7]heptadeca-1(16),3,6,13(17),14-pentaene]
